Reference: paper PMC3741113, “De-Novo Design of Antimicrobial Peptides for Plant Protection” (PLoS ONE, 2013)
Where two headings read alike, the source gives them in different places. Ends that are not written are not given here.

Assays:
[1] = system: Arabidopsis mesophyll protoplasts; assay: Phytotoxicity on plant protoplasts; format: cell-based; conditions: for phytotoxicity to plant protoplasts (in words) / Phytotoxicity: peptide concentration where protoplasts show first signs of cytoplasmic degradation: 1 h incubation, light microscope; for Phytotoxicity: peptide concentration where protoplasts show first signs of cytoplasmic degradation: 0, 10, 100, 200 µg/ml; for phytotoxicity (in words): concentrations up to 100 µg/ml
Description: Phytotoxicity was measured on Arabidopsis mesophyll protoplasts prepared from leaves as described in [80]. 80 µl protoplast suspension containing about 5000 protoplasts were incubated with 20 µl peptide solution. Final peptide concentrations were 0, 10, 100 and 200 µg/ml. The phytotoxic effect of antimicrobial peptides was observed after 1 h with a light microscope. Hints to cell death are loss of spherical shape, chloroplast release and/or agglomeration of protoplasts.

[2] = system: Clavibacter michiganensis ssp. michiganensis; conditions: LB-medium, 27°C
[3] = system: Pectobacterium carotovorum ssp. carotovorum; conditions: LB-medium, 27°C
Xanthomonas vesicatoria = conditions: LB-medium, 27°C
[4] = system: Pseudomonas syringae pv. tomato; conditions: LB-medium, 27°C
[5] = system: Pseudomonas syringae pv. syringae; conditions: LB-medium, 27°C
Pseudomonas corrugata = conditions: LB-medium, 27°C
[6] = system: P. syringae pv. tomato DC3000; conditions: peptide concentrations up to 100 µg/ml, sprayed; cfu 30 min after treatment
P. syringae = conditions: Table S5; 10 µg/ ml peptide; organism P. syringae pv syrimgae [sic]
tested plant pathogens = assay: Microdilution assay, activity summarised over several tested plant pathogens; format: cell-based
Description: In-vitro inhibition assays were performed in sterile flat-bottom 96-well polypropylene-plates (Greiner bio-one, Frickenhausen, Germany). 10 µl (antibacterial assay) or 20 µl (antifungal assay) of each concentration were loaded per well. Fresh bacterial colonies were transferred into LB-medium, grown to an OD600 nm of 0.08–0.1 and diluted 1∶100 with medium. 90 µl of this suspension containing about 10^5 CFU/ml of bacteria were added to each well resulting in final peptide concentrations from 0 to 100 µg/ml. After incubation at 27°C for 1–2d bacterial growth was analyzed by measuring the OD590 nm using a Tecan Genios microplate reader (Crailsheim, Germany).
Spores of plant pathogenic fungi were collected by washing sporulating cultures with water. Spore concentration was determined by haematocytometer and adjusted to 1.5–2×10^3 spores/ml in 2% malt extract medium. 80 µl of fungal spores were added per well resulting in final peptide concentrations from 0 to 100 µg/ml. After incubation at room temperature for 3d on a rotary shaker (300 rpm), fungal growth was determined by measuring the OD590 nm (Alternaria sp.) or by visual screening of the plates (Botrytis sp., Cladosporium sp.). The lowest peptide concentration, where no visible microbial growth could be detected, was determined for each organism-peptide combination and referred to as the minimal inhibitory concentration (MIC). At least two independent replicates were performed.

Botrytis cinerea = conditions: 2% malt extract medium, 1.5–2×10^3 spores/ml, room temperature, 3d, visual screening; lowest concentration with no visible growth; at least two independent replicates
Alternaria alternata = conditions: 2% malt extract medium, 1.5–2×10^3 spores/ml, room temperature, 3d, OD590 nm; lowest concentration with no visible growth; at least two independent replicates
Cladosporium herbarum = conditions: 2% malt extract medium, 1.5–2×10^3 spores/ml, room temperature, 3d, visual screening; lowest concentration with no visible growth; at least two independent replicates
Fusarium solani = conditions: 2% malt extract medium, room temperature, 3d; concentration range 1 to 64 µg/ml
human erythrocytes [7] = conditions: cited from earlier work
A. alternata = assay: Peptide spraying on inoculated tomato leaves, fungal growth; format: in vivo, A. alternata on tomato (Microtom); conditions: 50 µg/ml peptide sprayed 22 h after inoculation (10^4 spores/ml); fungal DNA by RT-PCR
Description: (§1) To determine antifungal activity of AMPs four week old tomato plants (Microtom) were inoculated with fungal spores using an aerosol can. Spores were harvested by washing sporulating plate-grown fungi (A. alternata and C. herbarum) with 62.5 mM KH2PO4 (pH 6.0) supplemented with 5.5 mM glucose and 0.1% Tween-20. One leaf per plant (three plants per treatment) was sprayed adaxial and abaxial with 500 µl spore suspension (10^4 spores/ml). In this way approximately 100 µl spore suspension was applied directly onto the plant surface. Plants were covered with a plastic cap to guarantee high humidity and incubated at 20°C. After two hours the T0 tissue sample was collected. AMPs were sprayed onto the leaf surface 22 h after inoculation. Leaves were harvested 24 h and 48 h after peptide treatment. Frozen material was homogenized in liquid nitrogen and fungal DNA was isolated. Quantification of fungal DNA content was done by qRT-PCR amplifying the nuclear encoded ribosomal internal transcribed spacer (ITS) regions. ITS1-forward and ITS4-reverse primers were used at an annealing temperature of 60°C: For A. alternata: ITS1-Alt-for, 5′-[…]-3′ and ITS4_Alt-rev, 5′-[…]-3′ and for C. herbarum: ITS1-Cla-for 5′-[…]-3′ and ITS4-Cla-rev, 5′-[…]-3′ (synthesized by metabion, Munich, Germany). […] Differences between the mean values were analysed using an unpaired t-test analysis of variance.

human erythrocytes [8] = assay: Hemolytic activity (hemoglobin release); format: cell-based
Description: The hemolytic activity of the peptides was evaluated by determining hemoglobin release of suspensions of fresh human erythrocytes at 405 nm. Human red blood cells (Deutscher Blutspendedienst, München, Germany) were centrifuged and washed three times with Tris-buffer (10 mM Tris, 150 mM NaCl, pH 7.4). 80 µl of cells (1.5×10^9 cells/ml) were added to 20 µl of the peptide solution in 96-well plates and incubated for 45 min at 37°C. Final peptide concentrations were 0, 20, 50, 100 and 200 µg/ml. After centrifugation (1,500 g, 5 min, 20°C) 30 µl aliquots of the supernatant were transferred to 96-well plates containing 100 µl of water and released hemoglobin was determined using a microplate reader (OD405 nm). 100% hemolysis was determined with 2% SDS.

C. herbarum = assay: Peptide spraying on inoculated tomato leaves, fungal growth; format: in vivo, C. herbarum on tomato (Microtom); conditions: 5 µg/ml peptide sprayed 22 h after inoculation (10^4 spores/ml); fungal DNA by RT-PCR
Description: as §1

[9] = about 10^5 CFU/ml, 1–2d, OD590 nm, at least two independent replicates

LRIIKKILKKLI-NH2 [SP10-5]
phytotoxicity to plant protoplasts (in words) [1]: very low phytotoxicity | Phytotoxicity: peptide concentration where protoplasts show first signs of cytoplasmic degradation [1]: 200 µg/mL | MIC ([2]; Table 4, incubation period 2d): 0.5 µg/mL | MIC ([3]; Table 4, incubation period 1d): 2.5 µg/mL | MIC (Xanthomonas vesicatoria; Table 4, incubation period 2d): 0.25 µg/mL | MIC ([4]; Table 4, incubation period 1d): 0.25 µg/mL | MIC ([5]; Table 4, incubation period 1d): 0.5 µg/mL | MIC (Pseudomonas corrugata; Table 4, incubation period 2d): 0.5 µg/mL | growth inhibition on tomato leaves [6]: 90% | Growth inhibition of bacteria/fungi on leaf surface (P. syringae): 70%

GIGKFLHSAKKFGKAFVGEIMNS [Magainin II, reference compound]
active concentrations (MIC) (tested plant pathogens; statement over some / the majority of the tested plant pathogens or bacteria): 1 to 8 µg/mL | MIC (Botrytis cinerea): 64 µg/mL | MIC (Alternaria alternata): > 64 µg/mL | MIC (Cladosporium herbarum): 64 µg/mL | MIC (Fusarium solani): 2 µg/mL | MIC [2, 9]: 32 µg/mL | MIC [3, 9]: > 64 µg/mL | MIC (Xanthomonas vesicatoria; [9]): 8 µg/mL | MIC [4, 9]: 32 µg/mL | MIC [5, 9]: > 64 µg/mL | MIC (Pseudomonas corrugata; [9]): 32 µg/mL | Hemolytic activity (human erythrocytes [7]; Table S5, ref Zasloff, 1987): 5 µg/mL

LRFLKKILKHLF-NH2 [SP10-D]
phytotoxicity (in words) [1]: no phytotoxicity | growth inhibition on tomato leaves (A. alternata): around 70% | MIC (Botrytis cinerea): 10 µg/mL | MIC (Alternaria alternata): 5 µg/mL | MIC (Cladosporium herbarum): 5 µg/mL | MIC [2, 9]: 5 µg/mL | MIC [3, 9]: > 40 µg/mL | MIC (Xanthomonas vesicatoria; [9]): 2 µg/mL

RKKRLKLLKRLL-NH2 [SP1-1]
phytotoxicity to plant protoplasts (in words) [1]: very low phytotoxicity | Phytotoxicity: peptide concentration where protoplasts show first signs of cytoplasmic degradation [1]: 200 µg/mL | MIC ([2]; Table 4, incubation period 2d): 2.5 µg/mL | MIC ([3]; Table 4, incubation period 1d): >10 µg/mL | MIC (Xanthomonas vesicatoria; Table 4, incubation period 2d): 0.1 µg/mL | MIC ([5]; Table 4, incubation period 1d): 0.1 µg/mL | MIC (Pseudomonas corrugata; Table 4, incubation period 2d): <0.1 µg/mL | growth inhibition on tomato leaves [6]: 90% | Growth inhibition of bacteria/fungi on leaf surface (P. syringae): 40%

CC(C)C[C@H](NC(=O)[C@H](CCCNC(=N)N)NC(=O)CNC(=O)CNC(=O)[C@@H](N)CCCNC(=N)N)C(=O)N[C@H]1CSSC[C@@H](C(=O)N[C@H](C(=O)NCC(=O)N[C@@H](CCCNC(=N)N)C(N)=O)C(C)C)NC(=O)[C@H](C(C)C)NC(=O)[C@@H]2CSSC[C@H](NC(=O)[C@H](Cc3ccc(O)cc3)NC1=O)C(=O)N[C@@H](CCCNC(=N)N)C(=O)N[C@@H](CCCNC(=N)N)C(=O)N[C@@H](CCCNC(=N)N)C(=O)N[C@@H](Cc1ccccc1)C(=O)N2 [Protegrin I, reference compound]
hemoglobin release (human erythrocytes [8]; 50 µg/ml peptide, human red blood cells): 25% | Activity range: peptide concentrations necessary to inhibit growth of the listed bacteria strains (tested plant pathogens; Table S5, strains listed under strain specificity): 1 to 8 µg/mL | Hemolytic activity (human erythrocytes [7]): < 80 µg/mL | Hemolytic activity: peptide concentration leading to 25% hemoglobin release: 50 µg/mL

KRRLIARILRLAARALVKKR-NH2 [SP13-D]
phytotoxicity (in words) [1]: no phytotoxicity | growth inhibition on tomato leaves (C. herbarum): More than 80% | MIC (Botrytis cinerea): > 40 µg/mL | MIC (Alternaria alternata): 20 µg/mL | MIC (Cladosporium herbarum): 5 µg/mL | MIC [2, 9]: 10 µg/mL | MIC [3, 9]: > 40 µg/mL | MIC (Xanthomonas vesicatoria; [9]): 2 µg/mL | MIC [4, 9]: 1 µg/mL | MIC (Pseudomonas corrugata; [9]): 40 µg/mL

LRFLKKALKKLF-NH2 [SP10-2]
Hemolytic activity: peptide concentration leading to 25% hemoglobin release from human blood cells (human erythrocytes [8]): > 200 µg/mL | phytotoxicity to plant protoplasts (in words) [1]: very low phytotoxicity | Phytotoxicity: peptide concentration where protoplasts show first signs of cytoplasmic degradation [1]: 200 µg/mL | MIC ([2]; Table 4, incubation period 2d): 0.25 µg/mL | MIC ([3]; Table 4, incubation period 1d): 1.0 µg/mL | MIC (Xanthomonas vesicatoria; Table 4, incubation period 2d): 0.25 µg/mL | MIC ([4]; Table 4, incubation period 1d): 0.5 µg/mL | MIC ([5]; Table 4, incubation period 1d): 0.1 µg/mL | MIC (Pseudomonas corrugata; Table 4, incubation period 2d): 0.5 µg/mL | growth inhibition on tomato leaves [6]: 90% | Growth inhibition of bacteria/fungi on leaf surface (P. syringae): 50%
